Measured values taken from patent US20160311795A1, “PYRIMIDINE DIAMINE DERIVATIVES AS INHIBITORS OF CYTOSOLIC HSP90” (CALASIA PHARMACEUTICALS, INC., priority 2012, published 2016).
pIC50: −log10 of the molar value.

Legend:
Akt1 = assay: Rat CNS biomarker assay, Akt1 ELISA in CNS lysates; type: in vivo; conditions: intraperitoneally, versus vehicle
Akt1 in LnCaP cells = assay: Akt1 degradation in cell lysates, ELISA; type: cell-based; conditions: Homo sapiens, 48 h
Method: Tumor cell lines (LnCaP) were obtained from the Sanford Burnham Medical Research Institute (La Jolla, Calif.), LnCaP cells were cultured in culture medium (RPMI-glutamax, 10% FCS, 100 units/ml penicillin, and 100 μg/ml streptomycin). Cells were passaged after lifting using 0.25% trypsin/EDTA, and 3×10^5 cells were seeded in each well of six well plates (total volume 2.5 mL/well). After the cells were cultured for 24 h, increasing concentrations of Hsp90 inhibitor were added to wells in triplicate from DMSO-containing stock solutions and mixed by gently by stirring. Final DMSO concentration in all wells was 0.25%. The treated cells were then cultured for 48 h prior to lysate preparation. […] The protein concentration in the cell lysates was determined using the BCA protein assay kit used according to the manufacturer's recommendations. […] Two hundred μL of BCA Protein Assay Kit reagent was added and the mixtures were incubated at 37° C. for 30 min Protein concentrations were determined using a micro-titer plate reader (Model #Synergy HT; BioTek Inc., Winooski, Vt.).
Akt1 levels in the cell lysates were measured using kits from R&D Systems used according to the manufacturer's recommendations. […] Akt1 levels were determined using a micro-titer plate reader (Model #Synergy HT; BioTek Inc., Winooski, Vt.). […] Fluorescence intensities of the dilutions were measured to obtain a standard curve. […]

[1] = test system: Caspase 3/7 activity in HepG2 cells; assay: Cellular Caspase-3/7 luminescence assay; type: cell-based; conditions: HepG2, 72 hours
Method: (§1) Further, the effect of SBI-0640725 on cellular caspase levels was also quantitated in U251MG, MBA-MD-231 and HepG2 cells. Each cell type was treated with increasing concentrations of SBI-0640725 for 72 hours. Quantification of total cellular Caspase-3 and 7 activity was accomplished using a Caspase-3/7 luminescence assay kit (Promega) according to the manufacturer's recommendations, and analyzed with a POLARstar Omega micro-titer plate reader (BMG). […] Caspase activity is a marker for apoptotic cell death.

[2] = test system: Caspase 3/7 activity in MBA-MD-231 cells; assay: Cellular Caspase-3/7 luminescence assay; type: cell-based; conditions: MBA-MD-231, 72 hours
Method: as §1

pIC50 (Akt1 in LnCaP cells) | SMILES | Akt1 level in CNS tissues (Akt1) | Caspase 3/7 activity [1] | Caspase 3/7 activity [2]
5.27 | COc1c(C)cnc(CN(CCc2ccccc2)c2cc(Cl)nc(N)n2)c1C [SBI-0639353, 6-Chloro-N4-((4-methoxy-3,5-dimethylpyridin-2-yl)methyl)-N4-phenethylpyrimidine-2,4-diamine] | a decrease in its levels compared to vehicle treated rats |  | 
 | COc1c(C)cnc(CN(CCc2ccc(F)cc2)c2cc(Cl)nc(N)n2)c1C [SBI-0640725] |  | increase in Caspase 3/7 activity | increase in Caspase 3/7 activity
